Each structure is given as a SMILES string.

Here are results for one compound from paper PMC11788587, “Validating Low‐Dose Iohexol as a Marker for Glomerular Filtration Rate by In Vitro and In Vivo Studies” (Clinical and Translational Science, 2025).

The target of one series is T1, hMATE2K (Homo sapiens, UniProt Q86VL8).
T1 construct: expressed in transfected cells; host or cells: HEK-293 (293) cells, pEBTetD plasmid, doxycycline-induced
Description: Inhibition of hMATE2K-mediated MPP+ uptake, stably transfected 293 cells. Type of series: cell-based. Conditions: substrate 3 µM MPP+, median (95% CI). The source says:
(§1) We characterized the inhibitory potential of iohexol on major drug transporters recommended by regulatory agencies, which were previously assessed in a clinical transporter phenotyping cocktail study. These transporters include hOAT1, hOAT3, hOCT1, hOCT2, hMATE1, hMATE2K, human organic anion transporter polypeptides (hOATP)1B1, hOATP1B3, and human multidrug resistance protein (hMDR)1. Additionally, we investigated whether iohexol is a substrate for any of the renal transporters among these, including hOAT1/3, hOCT1/2, and hMATE1/2K. Cell‐based uptake assays were used to assess the activities of hOAT1/3, hOCT1/2, hMATE1/2K, and hOATP1B1/1B3. Inside‐out membrane vesicle uptake assays were used to evaluate the activity of hMDR1.
(§2) To determine the maximal inhibitory potential of iohexol, intracellular accumulation of a standard substrate was measured with and without the clinically relevant highest concentrations of iohexol. Control inhibitors were tested in each experiment.
In all subsequent in vitro studies, control experiments were conducted to validate the results. These included positive controls for substrates and inhibitors, as well as cells either without transporter expression or transfected with an empty vector, and control vesicles. Each condition, including cells or vesicles with the transporter and their respective controls, was analyzed in at least three replicates. For detailed information on materials, methods, and data analysis techniques used, refer to the Supporting Information. […]
R version 4.2.1 (R Foundation for Statistical Computing, Vienna, Austria) was used for statistical evaluations and data visualization. The data analysis approach for the in vitro study was detailed by Hsin CH et al..^1 In brief, for transport assays, the initial uptake rate was calculated by normalizing the substrate concentration to both the protein concentration and the incubation time for each dish or well. The transporter-mediated uptake rate (net uptake) was determined by performing an element-wise subtraction of uptake rates from different conditions. […]

The next series deals with T2, hOATP1B1 (Homo sapiens, UniProt Q9Y6L6).
T2 construct: expressed in transfected cells; host or cells: 293 cells (control: empty vector)
T2 sequence (Q9Y6L6 1-691): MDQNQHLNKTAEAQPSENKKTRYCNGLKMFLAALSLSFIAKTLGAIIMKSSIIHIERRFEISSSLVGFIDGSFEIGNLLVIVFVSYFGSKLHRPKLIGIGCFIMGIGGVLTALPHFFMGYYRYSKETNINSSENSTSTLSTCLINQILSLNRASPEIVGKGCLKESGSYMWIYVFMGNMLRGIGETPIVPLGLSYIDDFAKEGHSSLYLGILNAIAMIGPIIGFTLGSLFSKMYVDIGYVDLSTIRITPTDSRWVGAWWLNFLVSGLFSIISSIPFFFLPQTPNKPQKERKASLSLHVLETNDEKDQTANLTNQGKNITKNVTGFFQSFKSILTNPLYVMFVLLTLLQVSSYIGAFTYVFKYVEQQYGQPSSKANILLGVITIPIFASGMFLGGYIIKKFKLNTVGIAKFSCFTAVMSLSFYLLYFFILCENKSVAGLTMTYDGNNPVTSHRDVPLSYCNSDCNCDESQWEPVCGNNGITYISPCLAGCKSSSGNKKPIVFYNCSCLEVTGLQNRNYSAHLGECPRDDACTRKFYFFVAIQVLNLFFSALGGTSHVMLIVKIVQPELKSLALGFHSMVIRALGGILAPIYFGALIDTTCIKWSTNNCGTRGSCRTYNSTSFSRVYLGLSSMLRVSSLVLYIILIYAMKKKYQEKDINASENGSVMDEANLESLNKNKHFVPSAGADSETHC
Description: Inhibition of hOATP1B1-mediated 3H-estrone sulfate uptake, stably transfected 293 cells. Type of series: cell-based. The following applies: substrate 0.01 μM 3H-estrone sulfate, median (95% CI).
Text: as §1, §2
In all subsequent in vitro studies, control experiments were conducted to validate the results. […] Each condition, including cells or vesicles with the transporter and their respective controls, was analyzed in at least three replicates. […]
Uptake assays were carried out with stably transfected 293 cells expressing hOATP1B1 or hOATP1B3, as well as cells containing an empty vector, using the method described by Hsin CH, et al..^1 For the inhibition assays, cells were incubated with the radiolabeled standard substrates specific to each transporter: 0.01 μM ^3H-estrone sulfate for hOATP1B1, and 0.02 μM ^3H-bromosulphophthalein (BSP) for hOATP1B3. […] The accumulation of radio-labelled probe substrates (^3H) in the cell lysate is determined using a Tri-Carb 2810 liquid scintillation counter (PerkinElmer, Waltham, MA, USA) as described previously.^1 Cellular protein amount was determined in parallel from 6 paired wells per cell line and experimental day, using the Bradford method.^2 The 1X lysis buffer (5X lysis buffer from Promega, diluted 1+4 [v/v] in ddH2O) was used as the lysis buffer. […]

T1 sequence (Q86VL8 1-566 isoform Q86VL8-3): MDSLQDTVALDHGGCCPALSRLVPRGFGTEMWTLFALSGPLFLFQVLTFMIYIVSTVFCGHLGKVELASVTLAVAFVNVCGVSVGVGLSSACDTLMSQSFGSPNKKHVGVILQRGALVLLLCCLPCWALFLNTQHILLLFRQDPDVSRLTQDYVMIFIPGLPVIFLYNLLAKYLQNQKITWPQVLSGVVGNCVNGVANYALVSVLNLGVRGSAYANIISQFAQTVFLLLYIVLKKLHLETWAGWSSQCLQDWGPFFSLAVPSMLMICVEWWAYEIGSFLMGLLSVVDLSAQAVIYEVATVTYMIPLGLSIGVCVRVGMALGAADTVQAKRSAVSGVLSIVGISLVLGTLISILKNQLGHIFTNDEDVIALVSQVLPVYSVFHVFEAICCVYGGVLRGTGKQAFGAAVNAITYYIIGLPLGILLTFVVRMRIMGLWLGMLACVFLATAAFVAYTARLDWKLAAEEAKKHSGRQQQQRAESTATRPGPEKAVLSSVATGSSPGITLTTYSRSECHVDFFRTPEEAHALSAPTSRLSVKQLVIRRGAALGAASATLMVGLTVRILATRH

For the compound `CC(=O)N(CC(O)CO)c1c(I)c(C(=O)NCC(O)CO)c(I)c(C(=O)NCC(O)CO)c1I` (stereo not drawn) [iohexol], the “Inhibitory effect (% reduction of specific activity)” value was below 30% at hMATE2K (20 mM iohexol) and “no notable inhibitory effects” at hOATP1B1 (20 mM iohexol). Moreover, the inhibition at 1000 µM at hMATE2K (HEK293, 1 mM iohexol, read-out: Inhibitory effect (% reduction of specific activity)) was determined as 14%. The inhibition at 20000 µM at hMATE2K (HEK293, 20 mM iohexol, read-out: Inhibitory effect (% reduction of specific activity)) stood at 26%. In addition, at hOATP1B1 (human, stably transfected 293 cells expressing hOATP1B1, probe 3H-estrone sulfate, 2 mM iohexol, read-out: Inhibitory effect (% reduction of specific activity)), the inhibition at 1 min, 2 mM is -6.9%. Also, the inhibition at 1 min, 20 mM on hOATP1B1 (human, stably transfected 293 cells expressing hOATP1B1, probe 3H-estrone sulfate, 20 mM iohexol, read-out: Inhibitory effect (% reduction of specific activity)) is 5.5%.
